Source: ChEMBL document CHEMBL1671642 (2009)
Converted amounts (≈) assume the structure as drawn.

Assays:
Format in all cases: functional
Escherichia coli [1] = experiment: Antimicrobial activity against Escherichia coli K-12 3-AG300 harboring AcrB-F628F mutant gene
Escherichia coli [2] = experiment: Antimicrobial activity against Escherichia coli K-12 3-AG300 harboring acrB::rpsLneo mutant gene
Escherichia coli [3] = experiment: Antimicrobial activity against Escherichia coli K-12 3-AG300 harboring AcrB-615-628MexB mutant gene
Escherichia coli [4] = experiment: Antimicrobial activity against Escherichia coli K-12 3-AG300 harboring AcrB-615-628MexB-N616 mutant gene
Escherichia coli [5] = experiment: Antimicrobial activity against Escherichia coli K-12 3-AG300 harboring AcrB-615-628MexB-M626I mutant gene
Escherichia coli [6] = experiment: Antimicrobial activity against Escherichia coli K-12 3-AG300 harboring AcrB-I626M mutant gene
Escherichia coli [7] = experiment: Antimicrobial activity against Escherichia coli K-12 3-AG300 harboring AcrB-G616N mutant gene
Escherichia coli [8] = experiment: Antimicrobial activity against Escherichia coli K-12 3-AG300 harboring AcrB-N623S-Q624S mutant gene
Escherichia coli [9] = experiment: Ratio of MIC for Escherichia coli K-12 3-AG300 harboring acrB::rpsLneo mutant gene to MIC for Escherichia coli K-12 3-AG300
Escherichia coli [10] = experiment: Antimicrobial activity against Escherichia coli K-12 3-AG300 harboring AcrB-615-628MexB-S623N mutant gene
Escherichia coli [11] = experiment: Ratio of MIC for Escherichia coli K-12 3-AG300 harboring AcrB-615-628MexB mutant gene to MIC for Escherichia coli K-12 3-AG300
Escherichia coli [12] = experiment: Ratio of MIC for Escherichia coli K-12 3-AG300 harboring AcrB-615-628MexB-M626I mutant gene to MIC for Escherichia coli K-12 3-AG300
Escherichia coli [13] = experiment: Ratio of MIC for Escherichia coli K-12 3-AG300 harboring AcrB-G616N mutant gene to MIC for Escherichia coli K-12 3-AG300

`CO[C@@H]1[C@@H](OC(N)=O)[C@@H](O)[C@H](Oc2ccc3c(O)c(NC(=O)c4ccc(O)c(CC=C(C)C)c4)c(=O)oc3c2C)OC1(C)C` [NOVOBIOCIN] was tested, and the MIC (Escherichia coli [1]) was 512 µg/mL (≈ 836 µM), the MIC (Escherichia coli [2]) was 4 µg/mL (≈ 6.53 µM) and the MIC (Escherichia coli [3]) was 512 µg/mL (≈ 836 µM). For the same compound, the MIC (Escherichia coli [4]) was 512 µg/mL (≈ 836 µM), the MIC (Escherichia coli [5]) was 512 µg/mL (≈ 836 µM) and the MIC (Escherichia coli [6]) was 512 µg/mL (≈ 836 µM). For the same compound, the MIC (Escherichia coli [7]) was 512 µg/mL (≈ 836 µM), the MIC (Escherichia coli [8]) was 512 µg/mL (≈ 836 µM) and the Ratio (Escherichia coli [9]) was 4. It also gave an MIC (Escherichia coli [10]) of 1020 µg/mL (≈ 1670 µM).
In the case of `CC[C@H]1OC(=O)[C@H](C)[C@@H](O[C@H]2C[C@@](C)(OC)[C@@H](O)[C@H](C)O2)[C@H](C)[C@@H](O[C@@H]2O[C@H](C)C[C@H](N(C)C)[C@H]2O)[C@](C)(O)C[C@@H](C)C(=O)[C@H](C)[C@@H](O)[C@]1(C)O` [ERYTHROMYCIN], the MIC (Escherichia coli [1]) is reported as 512 µg/mL (≈ 698 µM), the MIC (Escherichia coli [2]) is reported as 4 µg/mL (≈ 5.45 µM) and the MIC (Escherichia coli [3]) is reported as 128 µg/mL (≈ 174 µM). The MIC (Escherichia coli [4]) was 256 µg/mL (≈ 349 µM), the MIC (Escherichia coli [5]) was 128 µg/mL (≈ 174 µM) and the MIC (Escherichia coli [6]) was 512 µg/mL (≈ 698 µM). It also gave an MIC (Escherichia coli [7]) of 128 µg/mL (≈ 174 µM), a Ratio (Escherichia coli [9]) of 4 and a Ratio (Escherichia coli [11]) of 4. For the same compound, the Ratio (Escherichia coli [12]) was 4, the Ratio (Escherichia coli [13]) was 4 and the MIC (Escherichia coli [10]) was 256 µg/mL (≈ 349 µM).
In the case of `CN(C)c1ccc(O)c2c1C[C@H]1C[C@H]3[C@H](N(C)C)C(O)=C(C(N)=O)C(=O)[C@@]3(O)C(O)=C1C2=O` [MINOCYCLINE], the MIC (Escherichia coli [1]) is reported as 4 µg/mL (≈ 8.74 µM), the MIC (Escherichia coli [2]) is reported as 0.125 µg/mL (≈ 0.273 µM) and the MIC (Escherichia coli [3]) is reported as 2 µg/mL (≈ 4.37 µM). The MIC (Escherichia coli [4]) was 2 µg/mL (≈ 4.37 µM), the MIC (Escherichia coli [5]) was 4 µg/mL (≈ 8.74 µM) and the MIC (Escherichia coli [6]) was 4 µg/mL (≈ 8.74 µM). It also gave an MIC (Escherichia coli [7]) of 4 µg/mL (≈ 8.74 µM), an MIC (Escherichia coli [8]) of 4 µg/mL (≈ 8.74 µM) and a Ratio (Escherichia coli [9]) of 4. The MIC (Escherichia coli [10]) was 2 µg/mL (≈ 4.37 µM).
For `CC[C@H]1OC(=O)[C@H](C)[C@@H](O[C@H]2C[C@@](C)(OC)[C@@H](O)[C@H](C)O2)[C@H](C)[C@@H](O[C@@H]2O[C@H](C)C[C@H](N(C)C)[C@H]2O)[C@](C)(O)C[C@@H](C)CN(C)[C@H](C)[C@@H](O)[C@]1(C)O` [AZITHROMYCIN], the MIC (Escherichia coli [1]) was 64 µg/mL (≈ 85.4 µM), the MIC (Escherichia coli [2]) was 0.5 µg/mL (≈ 0.668 µM) and the MIC (Escherichia coli [3]) was 16 µg/mL (≈ 21.4 µM). It also gave an MIC (Escherichia coli [4]) of 64 µg/mL (≈ 85.4 µM), an MIC (Escherichia coli [5]) of 8 µg/mL (≈ 10.7 µM) and an MIC (Escherichia coli [6]) of 32 µg/mL (≈ 42.7 µM). For the same compound, the MIC (Escherichia coli [7]) was 16 µg/mL (≈ 21.4 µM), the Ratio (Escherichia coli [9]) was 4 and the Ratio (Escherichia coli [11]) was 4. The Ratio (Escherichia coli [12]) was 4, the Ratio (Escherichia coli [13]) was 4 and the MIC (Escherichia coli [10]) was 16 µg/mL (≈ 21.4 µM).
Compound `O=C(N[C@H](CO)[C@H](O)c1ccc([N+](=O)[O-])cc1)C(Cl)Cl` [CHLORAMPHENICOL] has an MIC (Escherichia coli [1]) of 8 µg/mL (≈ 24.8 µM), an MIC (Escherichia coli [2]) of 1 µg/mL (≈ 3.09 µM) and an MIC (Escherichia coli [4]) of 8 µg/mL (≈ 24.8 µM). It also gave an MIC (Escherichia coli [5]) of 8 µg/mL (≈ 24.8 µM), an MIC (Escherichia coli [6]) of 8 µg/mL (≈ 24.8 µM) and an MIC (Escherichia coli [7]) of 8 µg/mL (≈ 24.8 µM). The MIC (Escherichia coli [8]) was 8 µg/mL (≈ 24.8 µM).
`CCC[C@@H]1C[C@@H](C(=O)N[C@@H]([C@H]2O[C@H](SC)[C@H](O)[C@@H](O)[C@H]2O)[C@H](C)Cl)N(C)C1` [CLINDAMYCIN] was tested, and the MIC (Escherichia coli [1]) was 256 µg/mL (≈ 602 µM), the MIC (Escherichia coli [2]) was 4 µg/mL (≈ 9.41 µM) and the MIC (Escherichia coli [3]) was 256 µg/mL (≈ 602 µM). It also gave a Ratio (Escherichia coli [9]) of 4.
For `CC[C@H]1OC(=O)[C@H](C)[C@@H](O[C@H]2C[C@@](C)(OC)[C@@H](O)[C@H](C)O2)[C@H](C)[C@@H](O[C@@H]2O[C@H](C)C[C@H](N(C)C)[C@H]2O)[C@](C)(OC)C[C@@H](C)C(=O)[C@H](C)[C@@H](O)[C@]1(C)O` [CLARITHROMYCIN], the MIC (Escherichia coli [1]) was 512 µg/mL (≈ 685 µM), the MIC (Escherichia coli [2]) was 4 µg/mL (≈ 5.35 µM) and the MIC (Escherichia coli [3]) was 64 µg/mL (≈ 85.6 µM). The MIC (Escherichia coli [4]) was 512 µg/mL (≈ 685 µM), the MIC (Escherichia coli [5]) was 64 µg/mL (≈ 85.6 µM) and the MIC (Escherichia coli [6]) was 512 µg/mL (≈ 685 µM). It also gave an MIC (Escherichia coli [7]) of 128 µg/mL (≈ 171 µM), an MIC (Escherichia coli [8]) of 512 µg/mL (≈ 685 µM) and a Ratio (Escherichia coli [9]) of 4. The Ratio (Escherichia coli [11]) was 4, the Ratio (Escherichia coli [12]) was 4 and the Ratio (Escherichia coli [13]) was 4. For the same compound, the MIC (Escherichia coli [10]) was 128 µg/mL (≈ 171 µM).
Work on `CCOc1ccc(-c2nc3cc(-c4nc5cc(N6CCN(C)CC6)ccc5[nH]4)ccc3[nH]2)cc1` yielded an MIC (Escherichia coli [1]) of 4 µg/mL (≈ 8.84 µM), an MIC (Escherichia coli [2]) of 0.125 µg/mL (≈ 0.276 µM) and an MIC (Escherichia coli [3]) of 4 µg/mL (≈ 8.84 µM). The Ratio (Escherichia coli [9]) was 4.
Work on `CC(=O)NC[C@H]1CN(c2ccc(N3CCOCC3)c(F)c2)C(=O)O1` [LINEZOLID] yielded an MIC (Escherichia coli [1]) of 512 µg/mL (≈ 1520 µM), an MIC (Escherichia coli [2]) of 16 µg/mL (≈ 47.4 µM) and an MIC (Escherichia coli [3]) of 1020 µg/mL (≈ 3040 µM). It also gave an MIC (Escherichia coli [4]) of 1020 µg/mL (≈ 3040 µM), an MIC (Escherichia coli [5]) of 1020 µg/mL (≈ 3040 µM) and an MIC (Escherichia coli [6]) of 512 µg/mL (≈ 1520 µM). It also gave an MIC (Escherichia coli [7]) of 512 µg/mL (≈ 1520 µM), an MIC (Escherichia coli [8]) of 512 µg/mL (≈ 1520 µM) and a Ratio (Escherichia coli [9]) of 4. For the same compound, the MIC (Escherichia coli [10]) was 1020 µg/mL (≈ 3040 µM).
In the case of `Cc1onc(-c2ccccc2)c1C(=O)N[C@@H]1C(=O)N2[C@@H]1SC(C)(C)[C@@H]2C(=O)O` [OXACILLIN], the MIC (Escherichia coli [1]) is reported as 512 µg/mL (≈ 1280 µM), the MIC (Escherichia coli [2]) is reported as 0.5 µg/mL (≈ 1.25 µM) and the MIC (Escherichia coli [3]) is reported as 256 µg/mL (≈ 638 µM). The MIC (Escherichia coli [4]) was 256 µg/mL (≈ 638 µM), the MIC (Escherichia coli [5]) was 256 µg/mL (≈ 638 µM) and the MIC (Escherichia coli [6]) was 512 µg/mL (≈ 1280 µM). The MIC (Escherichia coli [7]) was 256 µg/mL (≈ 638 µM), the MIC (Escherichia coli [8]) was 256 µg/mL (≈ 638 µM) and the Ratio (Escherichia coli [9]) was 4. It also gave an MIC (Escherichia coli [10]) of 512 µg/mL (≈ 1280 µM).
For `CCBr` [BROMOETHANE], the MIC (Escherichia coli [1]) was 512 µg/mL (≈ 4700 µM), the MIC (Escherichia coli [2]) was 16 µg/mL (≈ 147 µM) and the MIC (Escherichia coli [3]) was 512 µg/mL (≈ 4700 µM). For the same compound, the MIC (Escherichia coli [4]) was 512 µg/mL (≈ 4700 µM), the MIC (Escherichia coli [5]) was 512 µg/mL (≈ 4700 µM) and the MIC (Escherichia coli [6]) was 1020 µg/mL (≈ 9400 µM). For the same compound, the MIC (Escherichia coli [7]) was 1020 µg/mL (≈ 9400 µM), the MIC (Escherichia coli [8]) was 1020 µg/mL (≈ 9400 µM) and the Ratio (Escherichia coli [9]) was 4. For the same compound, the MIC (Escherichia coli [10]) was 512 µg/mL (≈ 4700 µM).
